How the values were obtained:
Type in all cases: cell-based, human
sAPPα = sAPPα in FAD1 iPS cell-derived nerve cells (secondary screening); design: scale not given here; details: secondary screening, FAD1 iPS cell-derived nerve cells
Protocol: (§1) To further study reproducibility of the candidate drugs obtained by the primary screening, secondary screening was conducted. In addition to Aβ40, Aβ42, Aβ42/40 ratio, Aβ38, Aβ43, sAPPα, sAPPβ were also studied and each numerical value was obtained.

Aβ42 = Aβ42 in FAD1 iPS cell-derived nerve cells (primary/secondary screening, dose dependency); details: secondary screening, FAD1 iPS cell-derived nerve cells, numerical value (Aβ change rate)
Source text: (§2) To perform induction from iPS cells to the cerebral cortex nerve early and with high reproducibility, iPS cells introduced with human Neurogenin 2 gene (NGN2) linked to doxycycline-inducible promoter by using PiggyBac were used (FIG. 1a, FIG. 1b, FIG. 4a and FIG. 4b). IPS cells prepared from 4 patients with familial Alzheimer's disease (FAD), 2 patients with sporadic Alzheimer's disease (SAD) and 4 healthy individuals (HC) were used. The iPS cells were established by the method described in Okita K et al., Nature.
(§3) Structural formulas (those in the form of salt or halide are also described as free form) and the general names of the candidate compounds are shown in Table 1.
as §1

Aβ42/40 ratio = Aβ42/40 ratio in FAD1 iPS cell-derived nerve cells (primary/secondary screening, dose dependency); details: secondary screening
Source text: as §2, §3, §1

sAPPβ = sAPPβ in FAD1 iPS cell-derived nerve cells (secondary screening); design: sAPPβ: scale not given here; details: secondary screening, FAD1 iPS cell-derived nerve cells
Protocol: as §1

Aβ43 = Aβ43 in FAD1 iPS cell-derived nerve cells (secondary screening); design: scale not given here
Protocol: as §1

Aβ38 = Aβ38 in FAD1 iPS cell-derived nerve cells (secondary screening); design: scale not given here
Protocol: as §1

Row | SMILES | sAPPα (sAPPα) | Aβ42 (Aβ42) | Ratio Aβ42/40 (Aβ42/40 ratio) | sAPPβ (sAPPβ) | Aβ43 (Aβ43) | Aβ38 (Aβ38)
1 | CC1(C)C(C=C(Cl)Cl)C1C(=O)OC(C#N)c1cccc(Oc2ccccc2)c1 (stereo not drawn) [compound 38, CYPERMETHRIN] | 0.85 | 0.83 | 0.87 | 0.88 | 0.95 | 0.97
2 | COc1ccccc1N1CCN(CC(O)COc2cccc3ccccc23)CC1 (stereo not drawn) [compound 39, NAFTOPIDIL] | 0.73 | 0.86 | 0.86 | 0.64 | 0.9 | 1.1
3 | CC1CC(OC(=O)C(O)c2ccccc2)CC(C)(C)C1 (stereo not drawn) [compound 40, CYCLANDELATE] | 0.92 | 0.88 | 0.8 | 0.84 | 0.98 | 1.09
4 | C=C[C@H]1CN2CC[C@H]1C[C@H]2[C@H](OC(=O)OCC)c1ccnc2ccc(OC)cc12 [compound 41, QUININE ETHYL CARBONATE] | 0.84 | 0.85 | 0.77 | 0.72 | 0.88 | 1.05
5 | CC[N+]1(C)CCCC(OC(=O)C(O)(c2ccccc2)c2ccccc2)C1 (stereo not drawn) [compound 42, PIPENZOLATE] | 1.11 | 1.09 | 1.04 | 1.27 | 1.12 | 1.3
6 | c1ccc2c(c1)OCC(C1=NCCN1)O2 (stereo not drawn) [compound 43, IDAZOXAN] | 0.84 | 0.93 | 0.99 | 0.81 | 0.97 | 1.03
7 | CC(C(O)c1ccc(O)cc1)N1CCC(Cc2ccccc2)CC1 (stereo not drawn) [compound 44, IFENPRODIL] | 1.13 | 1 | 0.96 | 1.09 | 1.03 | 1.23
8 | O=c1c2ccccc2[se]n1-c1ccccc1 [compound 45, EBSELEN] | 1.17 | 1 | 1.04 | 1.35 | 1.16 | 1.2
9 | CC[C@H](C)C(=O)O[C@H]1C[C@@H](C)C=C2C=C[C@H](C)[C@H](CC[C@@H]3C[C@@H](O)CC(=O)O3)[C@H]21 [compound 46, LOVASTATIN] | 1.01 | 0.98 | 0.88 | 1.06 | 1.09 | 1.17
10 | NCC(=O)CCC(=O)O [compound 47, AMINOLEVULINIC ACID] | 1.15 | 1.06 | 0.97 | 1.4 | 1.16 | 1.29
11 | CCCCC(=O)N(Cc1ccc(-c2ccccc2-c2nn[nH]n2)cc1)[C@H](C(=O)O)C(C)C [compound 48] | 1.14 | 0.97 | 0.9 | 1.13 | 1 | 1.14
12 | NCCCCCC(=O)O [compound 49, AMINOCAPROIC ACID] | 0.99 | 0.96 | 1 | 0.9 | 0.97 | 1.1
13 | Nc1ccc(C(=O)O)c(O)c1 [compound 50, AMINOSALICYLATE] | 1 | 1.03 | 1.08 | 1.31 | 1.22 | 1.2
14 | CCOC(=O)c1ccc(N)cc1 [compound 51, BENZOCAINE] | 0.8 | 0.94 | 1.03 | 0.87 | 0.99 | 1.05
15 | CCCCOC(=O)c1ccc(O)cc1 [compound 53, BUTYL PARABEN] | 0.74 | 0.94 | 1.02 | 0.69 | 0.81 | 1.04
16 | COc1ccc(C(=O)c2ccccc2O)c(O)c1 [compound 54, DIOXYBENZONE] | 0.72 | 0.93 | 1.02 | 0.75 | 0.83 | 1.16
17 | CCCCOc1ccc(C(=O)CCN2CCCCC2)cc1 [compound 55, DYCLONINE] | 0.83 | 0.94 | 0.99 | 0.76 | 0.9 | 1.07

Row | SMILES | sAPPα (sAPPα) | Aβ42 (Aβ42) | Ratio Aβ42/40 (Aβ42/40 ratio) | sAPPβ (sAPPβ) | Aβ43 (Aβ43) | Aβ38 (Aβ38)
18 | O=C(O)C(O)[C@H](O)[C@@H](O)[C@H](O)[C@H](O)CO (stereo partly drawn) [compound 56, GLUCOHEPTONIC ACID] | 1.22 | 0.98 | 1.09 | 1.19 | 1.32 | 1.21
19 | C[C@H](CS)C(=O)N1CCC[C@H]1C(=O)O [compound 57, CAPTOPRIL] | 0.91 | 0.87 | 0.94 | 0.91 | 0.86 | 1.09
20 | CCCCOC(=O)c1ccc(N)cc1 [compound 58, BUTAMBEN] | 0.79 | 0.95 | 1.03 | 0.76 | 0.95 | 1.08
21 | CCOC(=O)OC(C)OC(=O)[C@@H]1N2C(=O)[C@@H](NC(=O)[C@H](N)c3ccccc3)[C@H]2SC1(C)C (stereo partly drawn) [compound 59, BACAMPICILLIN] | 1.11 | 1.09 | 1.15 | 1.23 | 1.44 | 1.32
22 | CC(C)n1c(/C=C/[C@H](O)C[C@@H](O)CC(=O)O)c(-c2ccc(F)cc2)c2ccccc21 [compound 60, FLUVASTATIN] | 0.99 | 0.96 | 0.84 | 1.14 | 1.04 | 1.16
23 | CCCc1nc(C(C)(C)O)c(C(=O)OCc2oc(=O)oc2C)n1Cc1ccc(-c2ccccc2-c2nn[nH]n2)cc1 [compound 61, OLMESARTAN MEDOXOMIL] | 0.8 | 0.82 | 0.86 | 0.86 | 0.9 | 0.85
24 | Nc1nc(/C(=C/CC(=O)O)C(=O)N[C@@H]2C(=O)N3C(C(=O)O)=CCS[C@H]23)cs1 [compound 62, CEFTIBUTEN] | 0.76 | 0.79 | 0.87 | 0.55 | 0.83 | 1.01
25 | C=CC1=C(C(=O)O)N2C(=O)[C@@H](NC(=O)/C(=N\O)c3csc(N)n3)[C@H]2SC1 [compound 63] | 0.82 | 0.79 | 0.87 | 1.01 | 0.9 | 0.95
26 | CCC[C@H](N[C@@H](C)C(=O)N1[C@H](C(=O)O)C[C@@H]2CCCC[C@@H]21)C(=O)OCC [compound 64, PERINDOPRIL ERBUMINE] | 0.7 | 0.81 | 0.85 | 0.53 | 0.91 | 1.01
27 | Cc1cc(CC(=O)O)n(C)c1C(=O)c1ccc(Cl)cc1 [compound 65, ZOMEPIRAC] | 0.73 | 0.79 | 0.85 | 0.76 | 0.83 | 0.92
28 | Cc1cccc(C(=O)O)c1O [compound 67, HYDROXYTOLUIC ACID] | 0.83 | 0.79 | 0.86 | 0.66 | 0.77 | 0.92
29 | CC(=O)Nc1ccc(OC(C)=O)cc1 [compound 68, DIACETAMATE] | 0.98 | 0.86 | 0.76 | 0.86 | 0.97 | 1.08
30 | CCn1cc(C(=O)O)c(=O)c2cnc(N3CCCC3)nc21 [compound 69, PIROMIDIC ACID] | 0.86 | 0.78 | 0.86 | 0.69 | 0.79 | 1.01
31 | CCOc1ccc(NC(=O)CC(C)O)cc1 (stereo not drawn) [compound 70, BUCETIN] | 0.75 | 0.82 | 0.88 | 0.75 | 0.85 | 1.02
32 | O=C(NC(Cc1cc(=O)[nH]c2ccccc12)C(=O)O)c1ccc(Cl)cc1 (stereo not drawn) [compound 71, REBAMIPIDE] | 0.8 | 0.79 | 0.85 | 0.66 | 0.78 | 0.97
33 | CCN(CCO)CCCC(C)Nc1ccnc2cc(Cl)ccc12 (stereo not drawn) [compound 72, HYDROXYCHLOROQUINE] | 0.85 | 0.9 | 1.01 | 0.72 | 0.87 | 1.08
